Test results reported in patent US20090246134A1, “COMPOSITIONS AND METHODS FOR MODULATING GATED ION CHANNELS” (PainCeptor Pharma Corporation, priority 2007, published 2009).

Columns and labels:
[1] = test system: native sensory-neuron gated ion channels; experiment: Patch-clamp electrophysiology of sensory neurons in primary culture; assay type: cell-based, rat; conditions: n=3
From the text: This example describes another in vitro assessment of the inhibitory activity of the compounds of the present invention utilizing patch-clamp electrophysiology of sensory neurons in primary culture.
Sensory neurons can be isolated and cultured in vitro from different animal species. The most widely used protocols use sensory neurons isolated from neonatal (Eckert, et al. (1997) J Neurosci Methods 77:183-190) and embryonic (Vasko, et al. (1994) J Neurosci 14:4987-4997) rat. […] Electrophysiology is performed similarly as described above in Example 2. In the voltage-clamp mode, trans-membrane currents are recorded. Compounds A and H at 1 μM inhibit the pH 6.5-induced inward current. In the current-clamp mode, change in the trans-membrane potential are recorded. Under acidic conditions (e.g., pH 6.5) the membrane depolarizes, leading to the firing of action potentials. Compounds A and H at 1 μM inhibit the acid-induced membrane depolarization and reduce the ensuing rate of action potential firing.

[2] = test system: CFA-induced change in weight bearing in Sprague-Dawley rats; experiment: CFA model of chronic inflammatory pain, hindpaw weight bearing; assay type: in vivo, rat; conditions: 24 h after CFA; 60 min after drug; Compound A 5, 10, 20 mg/kg i.p.; Compound H 10, 30, 60 mg/kg; morphine 3, 6, 10 mg/kg; n=7-8
Method: Rats (body weight 260-300 g) were given a s.c. injection of CFA (50% in saline, 100 μl, Sigma) into the plantar surface of the hindpaw under brief halothane anaesthesia. After 24 h, they were then tested for hindpaw weight bearing responses, as assessed using an Incapacitance Tester (Linton Instrumentation, UK), (Zhu et al., 2005). The instrument incorporates a dual channel scale that separately measures the weight of the animal distributed to each hindpaw. While normal rats distribute their body weight equally between the two hindpaws (50-50), the discrepancy of weight distribution between an injured and non-injured paw is a natural reflection of the discomfort level in the injured paw (nocifensive behavior). The rats were placed in the plastic chamber designed so that each hindpaw rested on a separate transducer pad. […] For each rat, three readings from each paw were taken and then averaged. Side-to-side weight bearing difference was calculated as the average of the absolute value of the difference between two hindpaws from three trials (right paw reading-left paw reading).
Hindpaw weight bearing responses were measured in male Sprague-Dawley rats for 2-3 days prior to being given a hindpaw injection of CFA. Twenty-four hours later baseline responses were measured and rats were then administered Compound A (5, 10 and 20 mg/kg, i.p.), Compound H (10, 30 and 60 mg/kg) and morphine (3, 6 and 10 mg/kg). Weight bearing responses were then measured at 30, 60 and 120 min after drug or vehicle injection (data shown at 60 min.). […] All groups n=7-8.

[3] = test system: formalin-induced pain in Sprague-Dawley rats; experiment: Formalin model of acute tonic pain; assay type: in vivo, rat; conditions: rat, in vivo
Method: Male Sprague-Dawley rats are housed together in groups of three animals under standard conditions with unrestricted access to food and water. All experiments are conducted according to the ethical guidelines for investigations of experimental pain in conscious animals (Zimmerman, 1983)
Assessment of formalin-induced flinching behavior in normal, uninjured rats (body weight 150-180 g) was made with the use of an Automated Nociception Analyser (University of California, San Diego, USA). Briefly, this involved placing a small C-shaped metal band (10 mm wide×27 mm long) on the hindpaw of the rat to be tested. The rats (four rats were included in each testing session) were then placed in a cylindrical plexiglass observation chamber (diameter 30.5 cm and height 15 cm) for 20 min for adaptation purposes prior to being administered drug or vehicle according to the experimental paradigm being followed. After adaptation, individual rats were then gently restrained and formalin (5% in saline, 50 μl, s.c.) was injected into the plantar surface of the hindpaw using a 27 G needle. Rats were then returned to their separate observation chambers, each of which were in turn situated upon an enclosed detection device consisting of two electromagnetic coils designed to produce an electromagnetic field in which movement of the metal band could be detected. The analogue signal was then digitised and a software algorithm (LabView) applied to enable discrimination of flinching behaviour from other paw movements. A sampling interval of 1 min was used and on the basis of the resulting response patterns 5 phases of nociceptive behaviour were identified and scored: first phase (P1; 0-5 min), interphase (Int; 6-15 min), second phase (P2; […]), phase 2A (P2A; 16-40 min) and phase 2B (P2B; 41-60 min).
Nociceptive behavior was also determined manually every 5 min by measuring the amount of time spent in each of four behavioral categories: 0, treatment of the injected hindpaw is indistinguishable from that of the contralateral paw; 1, the injected paw has little or no weight placed on it; 2, the injected paw is elevated and is not in contact with any surface; 3, the injected paw is licked, bitten, or shaken. A weighted nociceptive score, ranging from 0 to 3 was calculated by multiplying the time spent in each category by the category weight, summing these products, and dividing by the total time for each 5 min block of time. (Coderre et al., Pain 1993; 54: 43). On the basis of the resulting response patterns, 2 phases of nociceptive behavior were identified and scored: first phase (P1; 0-5 min), interphase (Int; 6-15 min), second phase (P2; […]), phase 2A (P2A; 16-40 min) and phase 2B (P2B; 41-60 min).
Statistical analysis was performed using Prism™ 4.01 software package (GraphPad, San Diego, Calif., USA). The difference in response levels between treatment groups and control vehicle group was analyzed using an ANOVA followed by Bonferroni's method for post-hoc pair-wise comparisons. A p value<0.05 was considered to be significant
The effect of Compound A on pain induced by intraplantar formalin injection was investigated. Compound A was administered i.p. 30 min. before the formalin. Compound A was able to reduce the total pain score behavior (flinching, licking, biting) in phase 1 and 2 of the formalin test.

## CCN1CCc2c(-c3ccccc3)cc3c(c2C1)NC(=O)/C3=N/O [Compound H, 5-phenyl-6,7,8,9-tetrahydro-3-(hydroxyimino)-8-ethyl-1H-pyrrolo[3,2-h]isoquinoline-2(3H)-one]
[1]; current-clamp mode, 1 μM
  acid-induced membrane depolarization: inhibit
[1]; current-clamp mode, acidic conditions, 1 μM
  rate of action potential firing: reduce
[1]
  activity of native sensory-neuron gated ion channels: effectively modulate
[1]; voltage-clamp mode, 1 μM
  pH 6.5-induced inward current: inhibit
[2]
  CFA-induced change in weight bearing compared with vehicle: marked dose-dependent attenuation
[3]
  acute tonic pain induced by formalin injection in the paw: block
